These results are taken from patent publication US7297551B2, “Recombinant proteins and peptides for endotoxin biosensors, endotoxin removal, and anti-microbial and anti-endotoxin therapeutics” (priority 1998, dated 2007).

Marks after values point to notes of the source that are not given here. Ends that are not written are not given here. Peptide text beside a SMILES is read from it. Some results are limits rather than exact numbers.

In one series the test system is P. aeruginosa. The series can be described thus: Microbicidal concentration (MBC) assay. In kind it is cell-based, Pseudomonas aeruginosa. As to conditions: MBC. As to the method:
Test strains cultured on Mueller-Hinton agar (MHA, Becton Dickinson, USA) were inoculated into 10 ml Mueller-Hinton broth (MHB, Becton Dickinson, USA) and grown overnight at 37° C. in a shaker incubator (Model 4536, Forma Scientific, Inc., USA) at 230 rpm. Overnight broth cultures were diluted to give a final cell density of 10^5 colony forming units/ml (cfu/ml). One hundred microliters of the bacterial suspension was dispensed into sterile polypropylene 8-strip PCR-tubes (Quality Scientific Plastics, USA). Eleven microliters of serially diluted sushi peptides, ranging in final concentrations of 0.03-4 μg/ml, were then added. The peptides were constituted at 10 times the required test concentrations in 0.01% acetic acid and 0.2% bovine serum albumin (BSA). Positive controls were cultures without test peptides. Uninoculated MHB was used as negative control. All tests were carried out in triplicate.
Cultures were incubated at 37° C. for 18-24 h, with the PCR-tubes held in horizontal position and shaken at 230 rpm. Cell counts were determined by standard drop-count method. The killing efficiency for the four sushi peptides were calculated based on standard drop-count method.

In another series the test system is P. aeruginosa ATCC 27853. The series can be described thus: Killing rate assay. In kind it is cell-based, Pseudomonas aeruginosa. As to conditions: peptides at 0.06 μg/ml, initial 10^9 cfu/ml. An excerpt:
The killing rate assay was adapted from the MBC test above, with different contact time of peptides with the bacteria arrested at regular intervals and plated for colony count. An initial density of 10^9 cfu/ml was used. […] This is one of the important features of an effective therapeutic agent.

Series [1] can be described thus: Protection of galactosamine-sensitized mice from LPS-induced lethality. As to conditions: 75 μg peptide, 2 ng LPS pre-incubated with peptide 30 minutes. In kind it is in vivo, C57BL/6J mice. The protocol: The anti-endotoxin potency of SSCrFCES was investigated in C57BL/6J mice. Mice are typically resistant to endotoxin. However, the sensitivity of mice to endotoxin can be enhanced >1,000-fold by co-injection with a liver-specific inhibitor, galactosamine (31). […] […] Lethality was observed over 3 days after injection. Statistical analysis were performed using the Kaplan-Meier test (32) and log rank pairwise test.

The subject of a further series is THP-1 monocytes. The protocol: Two×10^4 THP-1 monocytes in 50 μl of RPMI 1640 were mixed in a microtitre plate with 50 μl of increasing amount of 2-fold serial dilutions of SSCrFCES (0.004-4.0 mg/ml in PBS) and incubated for 60 min at 37° C. To determine cytotoxicity induced by the SSCrFCES, 20 μl of CellTiter96™ AQueous One Solution Reagent (Promega) was added into each well for 90 min at 37° C. [3-(4,5-dimethylthiazol-2-yl)-5-(3-carboxymethoxyphenyl)-2-(4-sulfophenyl)-2H-tetrazolium (MTS) is bioreduced by metabolically active cells into a colored formazan product that is soluble in tissue culture medium (27, 28). For detection, the absorbance was measured at 490 nm. To determine the ratio of cell lysis induced by SSCrFCES, two controls were used. Complete lysis (100%) was achieved by incubating cells in phosphate buffer saline containing 0.2% Tween-20 instead of medium only. This absorbance value corresponded to the background, as those cells could not metabolize MTS. The second control representing 0% lysis was determined by incubating cells in medium only. […] The experiment was done in triplicate.

The next series relates to Human erythrocytes. The series can be described thus: Hemolysis assay, human erythrocytes. As to conditions: 100 μg/ml. In kind it is cell-based. As to the method:
Human and rabbit erythrocytes were both used to test the hemolytic activities of the peptides. Whole blood was collected in heparinized sterile syringe, transferred to sterile borosilicate tube and centrifuged at 1200 g for 5 minutes at 4° C. The supernatant including the leukocytes above the erythrocyte pellet was discarded. The erythrocytes were washed 3 times using three volumes of prechilled pyrogen-free saline (PFS). An erythrocyte suspension at 0.4% was prepared for the hemolysis assay. Serial two-fold dilutions of the peptides was prepared in PFS and 100 μl aliquots were added to equal volumes of 0.4% erythrocyte solution in a 96-well microtiter plate (Nunclon™ Δ surface, Nunc) to give final peptide concentrations ranging from 6 to 100 μg/ml. The mixtures were incubated at 37° C. for 1 h. The intact erythrocytes were then pelleted by centrifuging at 1000 g for 5 min. One hundred μl of the supernatant was transferred to a new 96-well microtiter plate and the amount of hemoglobin released into the supernatant was determined by reading the absorbance at 414 nm using a SPECTRAmax™ 340 plate reader with SOFTmax PRO™ version 1.2.0. A positive control with 100 μl of 0.4% erythrocyte lysed in 1% Triton-X 100 was taken as 100% lysis. The negative control was the erythrocytes in PFS alone, which gave minimal lysis. This was taken as 0%.

A further series concerns Escherichia coli. As to conditions: time-kill kinetics tested on Escherichia coli; cited from earlier work.

Regarding `CC[C@H](C)[C@H](NC(=O)[C@H](CCCNC(=N)N)NC(=O)[C@H](C)NC(=O)[C@H](CCSC)NC(=O)CNC(=O)[C@H](CCCCN)NC(=O)[C@H](CC(C)C)NC(=O)[C@H](CCCCN)NC(=O)[C@H](Cc1ccccc1)NC(=O)CN)C(=O)N[C@@H](CO)C(=O)N[C@@H](CS)C(=O)N[C@@H](CC(C)C)C(=O)N1CCC[C@H]1C(=O)N[C@@H](CC(N)=O)C(=O)NCC(=O)N[C@@H](CCC(N)=O)C(=O)N[C@@H](Cc1c[nH]c2ccccc12)C(=O)N[C@@H](CO)C(=O)N[C@@H](CC(N)=O)C(=O)N[C@@H](Cc1ccccc1)C(=O)N1CCC[C@H]1C(=O)N1CCC[C@H]1C(=O)N[C@@H](CCCCN)C(=O)N[C@@H](CS)C(=O)N[C@H](C(=O)N[C@@H](CCCNC(=N)N)C(=O)N[C@@H](CCC(=O)O)C(=O)N[C@@H](CS)C(=O)N[C@@H](C)C(=O)N[C@@H](CCSC)C(=O)N[C@H](C(=O)N[C@@H](CO)C(=O)N[C@@H](CO)C(=O)O)C(C)C)[C@@H](C)CC` [S1] (H-GFKLKGMARISCLPNGQWSNFPPKCIRECAMVSS-OH; N-terminus and C-terminus assumed), in the series with P. aeruginosa, the “Anti-microbial Potency P. aeruginosa MBC90” value turned out to be 0.03 µg/mL. The “Killing rate (time to achieve MBC90)” value with P. aeruginosa ATCC 27853 is 7 min. Moreover, in series [1], the “Mouse Protection Assay” value amounted to 22% at 75.
Turning to GVSTTVLNIYRGIINLLQLNVKK [S8-vg3], the “Cytotoxicity (Cell lysis) BC50” value with THP-1 monocytes came to 22 µM. Moreover, the “Haemolytic Activity at 100 μg/ml peptide (hu RBC) % lysis” value (from here on “Haemolytic Activity … (hu RBC) % lysis”) in the series with Human erythrocytes was determined as 100%.
Consider HAEHKVKIGVEQKYGQFPQGTEVTYTCSGNYFLM [S3], for which the “Haemolytic Activity … (hu RBC) % lysis” value in the series with Human erythrocytes came out at 5%.
In the case of HKVKKIVKQLYRAEHKVKKIVKQL [S5], the “Cytotoxicity (Cell lysis) BC50” value in the series on THP-1 monocytes was 33 µM. The “Haemolytic Activity … (hu RBC) % lysis” value with Human erythrocytes was 0%.
On the same counts, the results for IYRGIINLIQLAVKKAQNVYQM [S9-vg4] are 35 µM and 75%.
In the same order, the values of LLNAVPHKATHAALKFLKEK [S7-vg2] are 400 µM and 5%.
As to MRKLVLALAKALAKVDKKNL [S6-vg1], in the series on THP-1 monocytes, the “Cytotoxicity (Cell lysis) BC50” value stood at 26 µM. Moreover, the “Haemolytic Activity … (hu RBC) % lysis” value in the series on Human erythrocytes is recorded as 5%.
As for Magainin II, the Killing rate with Escherichia coli is 60^d min.
With Nisin, the Killing rate with Escherichia coli is 60^d min.
Take RAEHKVKKIVKQLYGQFRQLTRVTRTCSRFLRRM [S4]: the “Cytotoxicity (Cell lysis) BC50” value with THP-1 monocytes came to 3.8 µM. The “Haemolytic Activity … (hu RBC) % lysis” value in the series on Human erythrocytes is reported as 20%.
As to Ranalexin, in the series on Escherichia coli, the Killing rate is >60^d min.
